Assay results published in patent US5099015A, “Trifluoromethyl 1-carba(1-dethia)cephems” (Eli Lilly and Company, priority 1991, dated 1992).
≈ marks a conversion by molar mass, not a printed value. Where two headings read alike, the source gives them in different places.

What was measured:
Assay in all cases: Agar dilution antibacterial test (MIC)
Assay type in all cases: cell-based
Acom AC12 = tested on: Acom AC12
Method: (§1) Fresh overnight cultures of test bacteria were diluted to approximately 1x(10)4 cells/microliter and applied in one microliter volumes to the surfaces of the agar plates. The innoculated plates were incubated overnight at 35° C. in ambient air. Minimum inhibitory concentration (mic) endpoints were recorded as the lowest antibiotic concentrations in micrograms per milliliter that inhibited the development of visible growth on the plates. The following summarizes the results of such tests with the compounds of the examples listed above.

Citro CF17 = tested on: Citro CF17
Method: as §1

[1] = tested on: Enterobacter aerogenes C32
Method: as §1

[2] = tested on: Enterobacter aerogenes EB17
Method: as §1

[3] = tested on: Enterobacter cloacae 265A
Method: as §1

Enterobacter cloacae EB5 = tested on: Enterobacter cloacae EB5
Method: as §1

[4] = tested on: Enterococcus faecalis 2041
Method: as §1

Enterococcus faecium X66 = tested on: Enterococcus faecium X66
Method: as §1

Escherichia coli EC14 = tested on: Escherichia coli EC14
Method: as §1

Escherichia coli N10 = tested on: Escherichia coli N10
Method: as §1

Escherichia coli TEM = tested on: Escherichia coli TEM
Method: as §1

[5] = tested on: Haemophilus influenzae 76
Method: as §1

[6] = tested on: Haemophilus influenzae C.L.
Method: as §1

[7] = tested on: Klebsiella pneumoniae KAE
Method: as §1

[8] = tested on: Klebsiella pneumoniae X26
Method: as §1

[9] = tested on: Klebsiella pneumoniae X68
Method: as §1

Morg morg PR15 = tested on: Morg morg PR15
Method: as §1

Proteus incon PR33 = tested on: Proteus incon PR33
Method: as §1

Proteus rett C24 = settings: Proteus rett C24
Method: as §1

Salmonella 1335 = tested on: Salmonella 1335
Method: as §1

Salmonella X514 = tested on: Salmonella X514
Method: as §1

Serratia SE3 = tested on: Serratia SE3
Method: as §1

Serratia X99 = tested on: Serratia X99
Method: as §1

Shig sonn. N9 = tested on: Shig sonn. N9
Method: as §1

[10] = tested on: Staphylococcus aureus NRRL X1.1
Method: as §1

[11] = tested on: Staphylococcus aureus S13E
Method: as §1

[12] = tested on: Staphylococcus aureus V41
Method: as §1

[13] = tested on: Staphylococcus aureus X400
Method: as §1

[14] = tested on: Staphylococcus epidermidis 222
Method: as §1

[15] = tested on: Staphylococcus epidermidis EPI270
Method: as §1

[16] = tested on: Staphylococcus pneumoniae Park 1
Method: as §1

[17] = tested on: Staphylococcus pyogenes C203
Method: as §1

[18] = Klebsiella aerogenes, read-out: MIC

N[C@@H](C(=O)N[C@@H]1C(=O)N2C(C(=O)O)=C(C(F)(F)F)CC[C@H]12)c1ccc(F)cc1 [Compound 3, [6R,7S]-7-β-[D-α-(amino)-4-fluorophenylacetylamino]-3-trifluoromethyl-1-carba-1-dethia-3-cephem-4-carboxylic acid]
MIC (Acom AC12; read-out: MIC): 64 µg/mL (≈ 159 µM) | MIC (Citro CF17; read-out: MIC): 8 µg/mL (≈ 19.9 µM) | MIC [1, 18]: 8 µg/mL (≈ 19.9 µM) | MIC [2, 18]: 8 µg/mL (≈ 19.9 µM) | MIC ([3]; read-out: MIC): 8 µg/mL (≈ 19.9 µM) | MIC (Enterobacter cloacae EB5; read-out: MIC): 8 µg/mL (≈ 19.9 µM) | MIC ([4]; read-out: MIC): 32 µg/mL (≈ 79.7 µM) | MIC (Enterococcus faecium X66; read-out: MIC): 32 µg/mL (≈ 79.7 µM) | MIC (Escherichia coli EC14; read-out: MIC): 1 µg/mL (≈ 2.49 µM) | MIC (Escherichia coli N10; read-out: MIC): 4 µg/mL (≈ 9.97 µM) | MIC (Escherichia coli TEM; read-out: MIC): 1 µg/mL (≈ 2.49 µM) | MIC ([5]; read-out: MIC): 1 µg/mL (≈ 2.49 µM) | MIC ([6]; read-out: MIC): 0.5 µg/mL (≈ 1.25 µM) | MIC ([7]; read-out: MIC): 8 µg/mL (≈ 19.9 µM) | MIC ([8]; read-out: MIC): 0.5 µg/mL (≈ 1.25 µM) | MIC ([9]; read-out: MIC): 1 µg/mL (≈ 2.49 µM) | MIC (Morg morg PR15; read-out: MIC): 16 µg/mL (≈ 39.9 µM) | MIC (Proteus incon PR33; read-out: MIC): 8 µg/mL (≈ 19.9 µM) | MIC (Proteus rett C24; read-out: MIC): 8 µg/mL (≈ 19.9 µM) | MIC (Salmonella 1335; read-out: MIC): 2 µg/mL (≈ 4.98 µM) | MIC (Salmonella X514; read-out: MIC): 0.5 µg/mL (≈ 1.25 µM) | MIC (Serratia SE3; read-out: MIC): 32 µg/mL (≈ 79.7 µM) | MIC (Serratia X99; read-out: MIC): 16 µg/mL (≈ 39.9 µM) | MIC (Shig sonn. N9; read-out: MIC): 2 µg/mL (≈ 4.98 µM) | MIC ([10]; NRRLX1.1, read-out: MIC): 1 µg/mL (≈ 2.49 µM) | MIC [11]: 32 µg/mL (≈ 79.7 µM) | MIC ([12]; read-out: MIC): 16 µg/mL (≈ 39.9 µM) | MIC ([13]; read-out: MIC): 64 µg/mL (≈ 159 µM) | MIC ([14]; read-out: MIC): 4 µg/mL (≈ 9.97 µM) | MIC ([15]; read-out: MIC): 4 µg/mL (≈ 9.97 µM) | MIC ([16]; PARK1, read-out: MIC): 0.25 µg/mL (≈ 0.623 µM) | MIC ([17]; read-out: MIC): 0.06 µg/mL (≈ 0.15 µM)

CCS(=O)(=O)Nc1cccc(C(N)C(=O)N[C@@H]2C(=O)N3C(C(=O)O)=C(C(F)(F)F)CC[C@H]23)c1 (stereo partly shown) [Compound 6]
MIC (Acom AC12): 64 µg/mL (≈ 130 µM) | MIC (Citro CF17): 32 µg/mL (≈ 65.2 µM) | MIC [1]: 16 µg/mL (≈ 32.6 µM) | MIC [2]: 16 µg/mL (≈ 32.6 µM) | MIC [3]: 32 µg/mL (≈ 65.2 µM) | MIC (Enterobacter cloacae EB5): 32 µg/mL (≈ 65.2 µM) | MIC [4]: 32 µg/mL (≈ 65.2 µM) | MIC (Enterococcus faecium X66): 64 µg/mL (≈ 130 µM) | MIC (Escherichia coli EC14): 1 µg/mL (≈ 2.04 µM) | MIC (Escherichia coli N10): 8 µg/mL (≈ 16.3 µM) | MIC (Escherichia coli TEM): 1 µg/mL (≈ 2.04 µM) | MIC [5]: 4 µg/mL (≈ 8.16 µM) | MIC [6]: 1 µg/mL (≈ 2.04 µM) | MIC [7]: 32 µg/mL (≈ 65.2 µM) | MIC [8]: 0.25 µg/mL (≈ 0.51 µM) | MIC [9]: 1 µg/mL (≈ 2.04 µM) | MIC (Morg morg PR15): 16 µg/mL (≈ 32.6 µM) | MIC (Proteus incon PR33): 16 µg/mL (≈ 32.6 µM) | MIC (Proteus rett C24): 32 µg/mL (≈ 65.2 µM) | MIC (Salmonella 1335): 8 µg/mL (≈ 16.3 µM) | MIC (Salmonella X514): 1 µg/mL (≈ 2.04 µM) | MIC (Serratia SE3): 128 µg/mL (≈ 261 µM) | MIC (Serratia X99): 64 µg/mL (≈ 130 µM) | MIC (Shig sonn. N9): 4 µg/mL (≈ 8.16 µM) | MIC [10]: 4 µg/mL (≈ 8.16 µM) | MIC [11]: 32 µg/mL (≈ 65.2 µM) | MIC [12]: 8 µg/mL (≈ 16.3 µM) | MIC [13]: 32 µg/mL (≈ 65.2 µM) | MIC [14]: 4 µg/mL (≈ 8.16 µM) | MIC [15]: 8 µg/mL (≈ 16.3 µM) | MIC [16]: 0.125 µg/mL (≈ 0.255 µM) | MIC [17]: 0.06 µg/mL (≈ 0.122 µM)
